From patent US10168342B2, “Lipid probes and uses thereof” (THE SCRIPPS RESEARCH INSTITUTE, priority 2015, dated 2019)

What was measured:
Test in all cases: isoTOP-ABPP mapping of AEA-DA-modified peptides in Neuro2a cells
Type in all cases: cell-based
[1] = biological target: T1, AEA-DA-modified peptides in Neuro2a cells (Mus musculus, UniProt O88545); conditions: AEA-DA-modified peptide COPS6 O88545 274-295, SEQ ID NO 24; probe 100 μM, 12 replicates
T1 construct: endogenous in cells; host or cells: Neuro2a
T1 sequence (O88545 whole entry): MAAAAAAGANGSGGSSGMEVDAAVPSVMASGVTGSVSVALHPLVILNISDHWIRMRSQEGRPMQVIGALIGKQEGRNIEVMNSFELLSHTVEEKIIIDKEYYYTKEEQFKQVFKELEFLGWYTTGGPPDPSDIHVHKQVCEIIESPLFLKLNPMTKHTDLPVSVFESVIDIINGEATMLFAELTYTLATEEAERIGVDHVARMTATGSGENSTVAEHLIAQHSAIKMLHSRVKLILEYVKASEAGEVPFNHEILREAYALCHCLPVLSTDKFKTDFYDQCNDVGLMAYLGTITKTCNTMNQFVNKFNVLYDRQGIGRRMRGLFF

[2] = biological target: T2, AEA-DA-modified peptides in Neuro2a cells (Mus musculus, UniProt P08113); conditions: AEA-DA-modified peptide HSP90B1 P08113 664-672, SEQ ID NO 51; probe 100 μM, 12 replicates
T2 construct: endogenous in cells; host or cells: Neuro2a
T2 sequence (P08113 22-802): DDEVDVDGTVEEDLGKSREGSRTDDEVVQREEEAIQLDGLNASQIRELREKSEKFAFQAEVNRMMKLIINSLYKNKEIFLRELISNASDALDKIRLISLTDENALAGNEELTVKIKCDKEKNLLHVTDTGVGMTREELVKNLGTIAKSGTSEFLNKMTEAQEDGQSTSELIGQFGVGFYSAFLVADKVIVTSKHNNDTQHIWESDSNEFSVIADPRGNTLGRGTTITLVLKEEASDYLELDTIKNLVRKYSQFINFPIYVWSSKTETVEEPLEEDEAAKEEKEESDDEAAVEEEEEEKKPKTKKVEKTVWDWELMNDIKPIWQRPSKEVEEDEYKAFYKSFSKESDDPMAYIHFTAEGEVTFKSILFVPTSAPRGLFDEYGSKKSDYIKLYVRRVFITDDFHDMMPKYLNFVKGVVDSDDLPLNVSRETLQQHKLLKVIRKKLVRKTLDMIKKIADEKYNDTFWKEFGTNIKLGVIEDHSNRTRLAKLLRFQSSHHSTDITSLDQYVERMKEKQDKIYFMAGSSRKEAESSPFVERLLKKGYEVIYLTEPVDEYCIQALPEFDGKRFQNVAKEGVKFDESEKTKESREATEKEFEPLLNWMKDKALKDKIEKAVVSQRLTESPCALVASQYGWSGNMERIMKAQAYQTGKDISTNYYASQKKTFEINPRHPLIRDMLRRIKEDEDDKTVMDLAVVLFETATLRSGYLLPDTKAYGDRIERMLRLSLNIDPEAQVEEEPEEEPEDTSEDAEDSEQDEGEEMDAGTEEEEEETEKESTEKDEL

[3] = biological target: T3, AEA-DA-modified peptides in Neuro2a cells (Mus musculus, UniProt P14733); conditions: AEA-DA-modified peptide LMNB1 P14733 159-183, SEQ ID NO 56; probe 100 μM, 12 replicates
T3 construct: endogenous in cells; host or cells: Neuro2a
T3 sequence (P14733 whole entry): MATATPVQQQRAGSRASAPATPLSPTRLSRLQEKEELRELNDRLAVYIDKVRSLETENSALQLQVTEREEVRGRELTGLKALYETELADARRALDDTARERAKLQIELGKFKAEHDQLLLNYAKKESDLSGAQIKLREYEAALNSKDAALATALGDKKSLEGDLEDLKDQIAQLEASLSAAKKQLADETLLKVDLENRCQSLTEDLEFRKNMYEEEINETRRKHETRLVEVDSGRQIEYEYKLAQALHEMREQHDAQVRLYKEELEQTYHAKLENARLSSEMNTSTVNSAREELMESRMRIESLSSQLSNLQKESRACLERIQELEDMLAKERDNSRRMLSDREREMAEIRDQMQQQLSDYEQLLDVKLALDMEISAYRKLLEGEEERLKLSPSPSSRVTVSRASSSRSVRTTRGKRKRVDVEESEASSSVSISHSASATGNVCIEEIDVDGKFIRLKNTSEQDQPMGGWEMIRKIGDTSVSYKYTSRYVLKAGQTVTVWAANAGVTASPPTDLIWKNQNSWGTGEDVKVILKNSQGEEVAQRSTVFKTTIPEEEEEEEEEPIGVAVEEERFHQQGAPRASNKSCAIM

[4] = biological target: T4, AEA-DA-modified peptides in Neuro2a cells (Mus musculus, UniProt P52825); conditions: AEA-DA-modified peptide CPT2 P52825 363-383, SEQ ID NO 26; probe 100 μM, 12 replicates
T4 construct: endogenous in cells; host or cells: Neuro2a
T4 sequence (P52825 26-658): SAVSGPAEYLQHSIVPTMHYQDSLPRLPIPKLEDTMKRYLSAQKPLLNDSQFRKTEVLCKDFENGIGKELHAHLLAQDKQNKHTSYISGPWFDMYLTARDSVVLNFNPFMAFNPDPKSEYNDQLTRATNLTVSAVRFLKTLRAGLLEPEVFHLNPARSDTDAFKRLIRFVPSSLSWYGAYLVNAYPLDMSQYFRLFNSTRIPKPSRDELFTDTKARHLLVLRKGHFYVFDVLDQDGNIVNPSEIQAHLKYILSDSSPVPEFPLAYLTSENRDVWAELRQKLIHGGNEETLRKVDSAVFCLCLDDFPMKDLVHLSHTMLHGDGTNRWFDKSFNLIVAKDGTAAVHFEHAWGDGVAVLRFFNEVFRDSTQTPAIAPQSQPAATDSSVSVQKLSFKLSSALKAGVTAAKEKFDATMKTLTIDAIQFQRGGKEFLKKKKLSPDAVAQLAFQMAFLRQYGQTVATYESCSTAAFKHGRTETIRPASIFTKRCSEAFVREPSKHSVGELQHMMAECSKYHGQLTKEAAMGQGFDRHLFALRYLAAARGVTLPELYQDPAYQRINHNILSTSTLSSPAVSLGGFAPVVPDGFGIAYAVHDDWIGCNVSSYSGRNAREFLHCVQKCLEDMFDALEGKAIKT

[5] = biological target: T5, AEA-DA-modified peptides in Neuro2a cells (Mus musculus, UniProt P61750); conditions: probe 100 μM, 12 replicates
T5 construct: endogenous in cells; host or cells: Neuro2a
T5 sequence (P61750 whole entry): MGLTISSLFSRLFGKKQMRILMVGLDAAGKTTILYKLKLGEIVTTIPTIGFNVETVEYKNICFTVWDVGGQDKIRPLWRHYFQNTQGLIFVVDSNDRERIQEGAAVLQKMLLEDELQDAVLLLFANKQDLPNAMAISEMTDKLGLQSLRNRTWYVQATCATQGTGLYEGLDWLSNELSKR

[6] = biological target: T6, AEA-DA-modified peptides in Neuro2a cells (Mus musculus, UniProt P62814); conditions: AEA-DA-modified peptide ATP6V1B2 P62814 68-82, SEQ ID NO 20; probe 100 μM, 12 replicates
T6 construct: endogenous in cells; host or cells: Neuro2a
T6 sequence (P62814 whole entry): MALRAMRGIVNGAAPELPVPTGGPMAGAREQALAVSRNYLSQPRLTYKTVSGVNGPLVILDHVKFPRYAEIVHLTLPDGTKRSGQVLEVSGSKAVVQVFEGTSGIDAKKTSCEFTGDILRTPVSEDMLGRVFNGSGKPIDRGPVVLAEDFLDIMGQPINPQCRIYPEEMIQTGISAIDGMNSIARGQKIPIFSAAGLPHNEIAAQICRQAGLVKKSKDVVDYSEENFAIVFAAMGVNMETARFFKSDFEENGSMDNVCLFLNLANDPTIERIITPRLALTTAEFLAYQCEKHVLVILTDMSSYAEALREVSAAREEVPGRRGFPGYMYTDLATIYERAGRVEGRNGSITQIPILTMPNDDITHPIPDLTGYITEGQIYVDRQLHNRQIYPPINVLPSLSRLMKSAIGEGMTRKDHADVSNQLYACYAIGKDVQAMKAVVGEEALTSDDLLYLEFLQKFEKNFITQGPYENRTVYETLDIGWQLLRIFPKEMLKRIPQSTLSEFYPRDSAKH

[7] = biological target: T7, AEA-DA-modified peptides in Neuro2a cells (Mus musculus, UniProt P84078); conditions: AEA-DA-modified peptide ARF1 P84078 39-60, SEQ ID NO 10; probe 100 μM, 12 replicates
T7 construct: endogenous in cells; host or cells: Neuro2a
T7 sequence (P84078 whole entry): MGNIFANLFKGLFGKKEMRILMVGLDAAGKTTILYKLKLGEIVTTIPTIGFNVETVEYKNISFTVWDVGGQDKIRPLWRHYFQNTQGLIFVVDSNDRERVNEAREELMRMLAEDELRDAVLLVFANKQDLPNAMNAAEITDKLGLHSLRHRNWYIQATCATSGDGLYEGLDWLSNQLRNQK

[8] = biological target: T8, AEA-DA-modified peptides in Neuro2a cells (Mus musculus, UniProt Q8BFY9); conditions: AEA-DA-modified peptide TNPO1 Q8BFY9 45-65, SEQ ID NO 114; probe 100 μM, 12 replicates
T8 construct: endogenous in cells; host or cells: Neuro2a
T8 sequence (Q8BFY9 whole entry): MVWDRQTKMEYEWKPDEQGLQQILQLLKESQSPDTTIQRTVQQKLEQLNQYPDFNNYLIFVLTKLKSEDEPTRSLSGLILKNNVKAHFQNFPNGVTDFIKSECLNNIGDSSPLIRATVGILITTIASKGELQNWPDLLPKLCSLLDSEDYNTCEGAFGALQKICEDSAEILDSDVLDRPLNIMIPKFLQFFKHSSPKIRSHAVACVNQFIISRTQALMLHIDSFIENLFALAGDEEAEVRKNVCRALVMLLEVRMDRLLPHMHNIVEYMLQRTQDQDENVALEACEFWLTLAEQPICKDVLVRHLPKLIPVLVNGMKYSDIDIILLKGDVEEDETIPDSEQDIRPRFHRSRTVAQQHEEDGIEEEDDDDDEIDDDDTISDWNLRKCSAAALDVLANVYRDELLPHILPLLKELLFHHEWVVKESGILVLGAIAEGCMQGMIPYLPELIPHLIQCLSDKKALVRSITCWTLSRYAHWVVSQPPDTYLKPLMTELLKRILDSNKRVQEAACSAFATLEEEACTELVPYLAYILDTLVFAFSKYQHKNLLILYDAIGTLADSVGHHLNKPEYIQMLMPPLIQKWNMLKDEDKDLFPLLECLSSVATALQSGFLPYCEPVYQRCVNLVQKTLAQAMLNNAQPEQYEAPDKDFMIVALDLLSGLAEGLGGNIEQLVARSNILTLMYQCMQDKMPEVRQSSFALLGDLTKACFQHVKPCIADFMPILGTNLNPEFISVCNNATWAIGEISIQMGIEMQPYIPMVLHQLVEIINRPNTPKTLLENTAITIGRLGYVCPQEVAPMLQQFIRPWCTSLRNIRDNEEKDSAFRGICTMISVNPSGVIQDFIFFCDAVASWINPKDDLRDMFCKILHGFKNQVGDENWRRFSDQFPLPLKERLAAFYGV

[9] = biological target: T9, AEA-DA-modified peptides in Neuro2a cells (Mus musculus, UniProt Q8CFE6); conditions: AEA-DA-modified peptide SLC38A2 Q8CFE6 171-179, SEQ ID NO 105; probe 100 μM, 12 replicates
T9 construct: endogenous in cells; host or cells: Neuro2a

[10] = biological target: T10, AEA-DA-modified peptides in Neuro2a cells (Mus musculus, UniProt Q91WC3); conditions: AEA-DA-modified peptide ACSL6 Q91WC3 408-420, SEQ ID NO 3; probe 100 μM, 12 replicates
T10 construct: endogenous in cells; host or cells: Neuro2a
T10 sequence (Q91WC3 whole entry): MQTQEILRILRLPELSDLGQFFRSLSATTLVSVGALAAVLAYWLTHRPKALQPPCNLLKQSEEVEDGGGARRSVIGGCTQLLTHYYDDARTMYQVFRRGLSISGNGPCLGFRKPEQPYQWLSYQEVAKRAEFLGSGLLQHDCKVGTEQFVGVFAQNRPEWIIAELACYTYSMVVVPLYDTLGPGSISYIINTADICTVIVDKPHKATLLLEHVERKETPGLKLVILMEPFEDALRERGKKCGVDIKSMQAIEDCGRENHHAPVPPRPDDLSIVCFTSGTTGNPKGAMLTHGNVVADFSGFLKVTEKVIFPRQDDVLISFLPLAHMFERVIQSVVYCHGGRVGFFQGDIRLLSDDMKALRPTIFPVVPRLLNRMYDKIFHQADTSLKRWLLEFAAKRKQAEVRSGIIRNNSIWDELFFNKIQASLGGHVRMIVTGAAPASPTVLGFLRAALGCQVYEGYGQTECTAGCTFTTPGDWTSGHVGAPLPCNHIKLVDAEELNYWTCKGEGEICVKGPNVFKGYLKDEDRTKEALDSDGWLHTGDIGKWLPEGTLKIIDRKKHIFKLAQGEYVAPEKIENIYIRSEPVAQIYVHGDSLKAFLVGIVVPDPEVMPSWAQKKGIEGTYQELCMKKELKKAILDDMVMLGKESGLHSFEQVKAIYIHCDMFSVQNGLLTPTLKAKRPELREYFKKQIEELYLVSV

[11] = biological target: T11, AEA-DA-modified peptides in Neuro2a cells (Mus musculus, UniProt Q91WD5); conditions: AEA-DA-modified peptide NDUFS2 Q91WD5 36-57, SEQ ID NO 67; probe 100 μM, 12 replicates
T11 construct: endogenous in cells; host or cells: Neuro2a

[12] = biological target: T12, AEA-DA-modified peptides in Neuro2a cells (Mus musculus, UniProt Q99P72); conditions: AEA-DA-modified peptide RTN4 Q99P72 1045-106, SEQ ID NO 94; probe 100 μM, 12 replicates
T12 construct: endogenous in cells; host or cells: Neuro2a

## C#CCCCC1(CC/C=C\C/C=C\C/C=C\CCCC(=O)NCCO)N=N1 [AEA-DA, (5Z,8Z,11Z)-N-(2-hydroxyethyl)-14-(3-(pent-4-yn-1-yl)-3H-diazirin-3-yl)tetradeca-5,8,11-trienamide]
[1]
  Times observed: 8
[2]
  Times observed: 4
[3]
  Times observed: 2
[4]
  Times observed: 6
[5]; AEA-DA-modified peptide ARF4 P61750 39-60, SEQ ID NO 13
  Times observed: 9
[5]; AEA-DA-modified peptide ARF4 P61750 110-128, SEQ ID NO 12
  Times observed: 2
[6]
  Times observed: 3
[7]
  Times observed: 9
[8]
  Times observed: 5
[9]
  Times observed: 4
[10]
  Times observed: 6
[11]
  Times observed: 3
[12]
  Times observed: 7
